From ChEMBL document CHEMBL2086273, “Significant activity of ecdysteroids on the resistance to doxorubicin in mammalian cancer cells expressing the human ABCB1 transporter” (J Med Chem, 2012)

How the values were obtained:
Format in all cases: cell-based
[1] = molecular target: T1, ATP-dependent translocase ABCB1 (Homo sapiens, UniProt P08183); experiment: Inhibition of human ABCB1 pump expressed in mouse L5178 cells assessed as fluorescence activity ratio at 20 uM for 10 mins by flow cytometry relative to control; details: l5178, 10 min
T1 sequence (P08183 whole entry): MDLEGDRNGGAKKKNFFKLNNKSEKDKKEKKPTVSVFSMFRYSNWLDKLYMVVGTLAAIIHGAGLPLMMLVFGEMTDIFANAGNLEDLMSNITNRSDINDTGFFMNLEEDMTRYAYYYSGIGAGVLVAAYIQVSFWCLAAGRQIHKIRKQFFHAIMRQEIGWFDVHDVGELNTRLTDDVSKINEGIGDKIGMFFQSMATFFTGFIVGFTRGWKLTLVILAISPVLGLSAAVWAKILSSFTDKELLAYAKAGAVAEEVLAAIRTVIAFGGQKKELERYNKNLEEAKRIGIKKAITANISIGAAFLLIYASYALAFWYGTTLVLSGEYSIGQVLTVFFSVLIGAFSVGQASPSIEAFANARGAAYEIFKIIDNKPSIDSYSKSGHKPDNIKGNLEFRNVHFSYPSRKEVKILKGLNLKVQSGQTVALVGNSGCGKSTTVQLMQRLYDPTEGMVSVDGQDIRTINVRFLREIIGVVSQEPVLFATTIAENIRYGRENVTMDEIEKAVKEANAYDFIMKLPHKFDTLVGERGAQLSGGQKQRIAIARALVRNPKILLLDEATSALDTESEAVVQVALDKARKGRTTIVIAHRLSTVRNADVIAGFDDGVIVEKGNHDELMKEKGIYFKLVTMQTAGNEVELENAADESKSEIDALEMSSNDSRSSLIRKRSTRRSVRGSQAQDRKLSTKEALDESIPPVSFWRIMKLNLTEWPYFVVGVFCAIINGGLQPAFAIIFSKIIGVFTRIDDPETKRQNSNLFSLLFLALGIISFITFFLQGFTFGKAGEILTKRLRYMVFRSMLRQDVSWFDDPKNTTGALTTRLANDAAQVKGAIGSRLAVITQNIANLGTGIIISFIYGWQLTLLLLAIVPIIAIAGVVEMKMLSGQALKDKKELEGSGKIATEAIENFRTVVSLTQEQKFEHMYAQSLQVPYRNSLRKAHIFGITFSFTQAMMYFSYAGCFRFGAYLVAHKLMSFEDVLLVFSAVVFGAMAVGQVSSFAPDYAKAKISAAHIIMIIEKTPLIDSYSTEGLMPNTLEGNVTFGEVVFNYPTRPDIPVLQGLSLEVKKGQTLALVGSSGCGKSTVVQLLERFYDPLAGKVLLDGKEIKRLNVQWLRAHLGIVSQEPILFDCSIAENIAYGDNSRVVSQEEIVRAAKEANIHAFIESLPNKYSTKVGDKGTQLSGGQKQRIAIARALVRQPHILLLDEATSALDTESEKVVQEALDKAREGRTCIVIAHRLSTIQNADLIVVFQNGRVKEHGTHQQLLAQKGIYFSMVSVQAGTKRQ

[2] = molecular target: T1, ATP-dependent translocase ABCB1; experiment: Inhibition of human ABCB1 expressed in mouse L5178 cells assessed as 50% inhibition of cell proliferation at compound-doxorubicin ratio of 40.8:1 after 48 hrs by MTT assay; details: l5178, 48 h
[3] = molecular target: T1, ATP-dependent translocase ABCB1; experiment: Inhibition of human ABCB1 expressed in mouse L5178 cells assessed as 75% inhibition of cell proliferation at compound-doxorubicin ratio of 40.8:1 after 48 hrs by MTT assay; details: l5178, 48 h
[4] = molecular target: T1, ATP-dependent translocase ABCB1; experiment: Inhibition of human ABCB1 expressed in mouse L5178 cells assessed as 95% inhibition of cell proliferation at compound-doxorubicin ratio of 40.8:1 after 48 hrs by MTT assay; details: l5178, 48 h
[5] = molecular target: T1, ATP-dependent translocase ABCB1; experiment: Inhibition of human ABCB1 expressed in mouse L5178 cells assessed as 50% inhibition of cell proliferation at compound-doxorubicin ratio of 20.4:1 after 48 hrs by MTT assay; details: l5178, 48 h
[6] = molecular target: T1, ATP-dependent translocase ABCB1; experiment: Inhibition of human ABCB1 expressed in mouse L5178 cells assessed as 75% inhibition of cell proliferation at compound-doxorubicin ratio of 20.4:1 after 48 hrs by MTT assay; details: l5178, 48 h
[7] = molecular target: T1, ATP-dependent translocase ABCB1; experiment: Inhibition of human ABCB1 expressed in mouse L5178 cells assessed as 95% inhibition of cell proliferation at compound-doxorubicin ratio of 20.4:1 after 48 hrs by MTT assay; details: l5178, 48 h

SMILES	Ratio [1]	fractional inhibitory concentration index (FICI) [2]	fractional inhibitory concentration index (FICI) [3]	fractional inhibitory concentration index (FICI) [4]	fractional inhibitory concentration index (FICI) [5]	fractional inhibitory concentration index (FICI) [6]	fractional inhibitory concentration index (FICI) [7]
C=C(C)C(C[C@@H](O)[C@](C)(O)[C@H]1CC[C@@]2(O)C3=CC(=O)[C@]4(O)C[C@@H](O)[C@@H](O)C[C@]4(C)[C@H]3CC[C@]12C)C(C)O (stereo not given in full) [AJUGASTERONE B]	0.7	1.21	0.59	0.3			
CC(C)(O)CCC[C@](C)(O)[C@H]1CC[C@@]2(O)C3=CC(=O)[C@@H]4C[C@@H](O)[C@@H](O)[C@@H](O)[C@]4(C)[C@H]3CC[C@]12C	0.66	1.37	0.9	0.6			
CC(C)(O)CC[C@@H](O)[C@](C)(O)[C@H]1CC[C@@]2(O)C3=CC(=O)[C@@H]4C[C@@H](O)CC[C@]4(C)[C@H]3CC[C@]12C	0.55	1.05	1.48	2.26			
CC(C)[C@@H](O)C[C@@H](O)[C@](C)(O)[C@H]1CC[C@@]2(O)C3=CC(=O)[C@@H]4C[C@@H](O)[C@@H](O)C[C@]4(C)[C@H]3CC[C@]12C [PTEROSTERONE]	0.56	1.32	0.84	0.54			
C[C@@H]1C(=O)O[C@H](C)[C@H]1C[C@@H](O)[C@](C)(O)[C@H]1CC[C@@]2(O)C3=CC(=O)[C@@H]4C[C@@H](O)[C@@H](O)C[C@]4(C)[C@H]3CC[C@]12C [CYASTERONE]	0.75	1.54	0.85	0.47			
CC(O)(CO)CC[C@H]1OC(C)(C)O[C@]1(C)[C@H]1CC[C@@]2(O)C3=CC(=O)[C@]4(O)C[C@@H](O)[C@@H](O)C[C@]4(C)[C@H]3CC[C@]12C (stereo not given in full)	13.32	0.42	0.16	0.062			
CC(C)CC[C@@H](O)[C@](C)(O)[C@H]1CC[C@@]2(O)C3=CC(=O)[C@@H]4C[C@@H](O)[C@@H](O)C[C@]4(C)C3=CC[C@]12C [DACRYHAINANSTERONE]	1.07	1.76	2.92	5.46			
C=C(C)CC[C@@H](O)[C@](C)(O)[C@H]1CC[C@@]2(O)C3=CC(=O)[C@@H]4C[C@@H](O)[C@@H](O)C[C@]4(C)C3=CC[C@]12C	1.43	1.75	0.85	0.43			
C[C@]12C[C@H](O)[C@H](O)C[C@H]1C(=O)C=C1[C@@H]2CC[C@]2(C)C(=O)CC[C@@]12O [RUBROSTERONE]	0.89	1.12	0.65	0.41			
C=C(CCCC(C)(C)O)[C@H]1CC[C@@]2(O)C3=CC(=O)[C@@H]4C[C@@H](O)[C@@H](O)[C@@H](O)[C@]4(C)[C@H]3CC[C@]12C	1.58				0.79	0.86	0.95
CC(C)CC[C@H]1OC(C)(C)O[C@]1(C)[C@H]1CC[C@@]2(O)C3=CC(=O)[C@@H]4C[C@H]5OC(C)(C)O[C@H]5C[C@]4(C)C3=CC[C@]12C	41.15				0.19	0.14	0.1
CC[C@H](C[C@H]1OC(C)(C)O[C@]1(C)[C@H]1CC[C@@]2(O)C3=CC(=O)[C@@H]4C[C@H]5OC(C)(C)O[C@H]5C[C@]4(C)[C@H]3CC[C@]12C)C(C)(C)O	26.53				0.19	0.11	0.068
C=C(CCCC(C)(C)O)[C@H]1CC[C@@]2(O)C3=CC(=O)[C@@H]4C[C@@H](O)[C@@H](O)C[C@]4(C)[C@H]3CC[C@]12C	0.88	1.05	0.71	0.53			
CC(=O)O[C@H]1C[C@]2(C)[C@H]3CC[C@]4(C)[C@@H]([C@@](C)(O)[C@@H](CCC(C)(C)O)OC(C)=O)CC[C@@]4(O)C3=CC(=O)[C@]2(O)C[C@H]1OC(C)=O	47.95	0.35	0.3	0.26			
CC(C)(O)CC[C@H]1OC(C)(C)O[C@]1(C)[C@H]1CC[C@@]2(O)C3=CC(=O)[C@@H]4C[C@@H](O)CC[C@]4(C)[C@H]3CC[C@]12C	7.01				0.88	0.28	0.091
CC(C)CC[C@H]1OC(C)(C)O[C@]1(C)[C@H]1CC[C@@]2(O)C3=CC(=O)[C@@H]4C[C@H]5OC(C)(C)O[C@H]5C[C@]4(C)[C@H]3[C@H](O)C[C@]12C	46.49				0.18	0.14	0.12
CC(C)(O)CC[C@H]1OC(C)(C)O[C@]1(C)[C@H]1CC[C@@]2(O)C3=CC(=O)[C@@H]4C[C@@H](O)[C@H]5OC(C)(C)O[C@H]5[C@]4(C)[C@H]3CC[C@]12C	2.43				0.66	0.42	0.28
CC(C)(O)CC[C@@H](O)[C@](C)(O)[C@H]1CC[C@@]2(O)C3=CC(=O)[C@@H]4C[C@@H](O)[C@@H](O)C[C@]4(C)[C@H]3CC[C@]12C [20-HYDROXYECDYSONE]	1.76				2	2.02	2.04
CC1(CC[C@H]2OC(C)(C)O[C@]2(C)[C@H]2CC[C@@]3(O)C4=CC(=O)[C@@H]5C[C@H]6OC(C)(C)O[C@H]6C[C@]5(C)[C@H]4CC[C@]23C)COC(C)(C)O1 (stereo not given in full)	24.39				0.23	0.16	0.12
CC(=O)O[C@H]1CC[C@@]2(C)[C@@H](C1)C(=O)C=C1[C@@H]2CC[C@]2(C)[C@@H]([C@H](C)[C@@H](CCC(C)(C)OC(C)=O)OC(C)=O)CC[C@@]12O	25.07				0.41	0.23	0.14
